Experimental data: article PMC5442318, “Hundreds of dual-stage antimalarial molecules discovered by a functional gametocyte screen” (Nature Communications, 2017)
Read-outs that look alike come from different tables or passages of the source.

Experiments:
[1] = test system: P. falciparum stage V female gametocytes; experiment: P. falciparum female gametocyte activation assay (Pf FGAA), 24 h or 48 h preincubation, Pfs25 expression readout; format: cell-based, Plasmodium falciparum NF54; details: mean, read-out: Gametocytes mean Pf FGAA IC50
Outline: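 Purified stage V gametocytes from P. falciparum NF54 gametocyte cultures were exposed to compounds for 24 h or 48 h at 37 °C under 3% O2/5% CO2, then activated by temperature drop plus xanthurenic acid. Activated females were stained with Cy3-anti-Pfs25 (0.5 μg ml^−1) for 24 h at 26 °C and counted by high-content imaging; pIC50 by nonlinear regression.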

[2] = test system: P. falciparum stages IV–V gametocytes; experiment: Gametocytocidal ATP-depletion assay (gametocyte ATP bioluminescence); format: cell-based, Plasmodium falciparum
Outline: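 Purified stage IV–V gametocytes (12,500/well) incubated with compound for 48 h at 37 °C under 3% O2/5% CO2. ATP measured by BacTiter-Glo luminescence as a viability surrogate; hits tested at 2 μM single concentration.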

[3] = test system: HepG2 cells; experiment: HepG2 cytotoxicity assay; format: cell-based
Outline: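 Steps: equilibrate plates and detection reagent at room temperature (30 min); dispense CellTiter-Glo; allow 10 min at room temperature; record luminescence.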

[4] = test system: P. falciparum asexual blood stages; details: read-out: Pf Asexual blood stages XC50, cited from earlier work
[5] = P. falciparum female gametocytes
[6] = TCAMS asexual blood stage data, ref 1 (Gamo, F. J. et al., Nature 465, 305-310, 2010)
[7] = P. falciparum female gametocyte activation assay
[8] = TCAMS data, ref 1 (Gamo et al., 2010)

| Structure (SMILES) | IC50 [1, 5] [nM] | Gametocytes mean ATP inhibition at 2µM [2] [%] | HepG2 cells mean TOX50 ([3]; HepG2 cells; mean) [µM] | IC50 [4, 6] [nM] | IC50 [1] [nM] | Gametocytes mean ATP inhibition at 2µM (%) [2] [%] | HepG2 cells mean TOX50 ([3]; mean) [µM] | IC50 [4, 8] [nM] | further results |
| --- | --- | --- | --- | --- | --- | --- | --- | --- | --- |
| COc1ccc(CNC2Cc3ccccc3C2)cc1-c1ccc(OC)c(S(=O)(=O)NCCN2CCCC2)c1.O=C(O)C(F)(F)F [TCMDC-132251] | 2700 | 24.03 | 7.17 | 770 | – | – | – | – | – |
| CC(C)(CNC(=O)[C@H]1CCCN1)c1nc(-c2ccc(Cl)c(O)c2)c(-c2ccncc2)[nH]1.Cl [TCMDC-141060] | – | -7.23 | – | 1270 | – | – | – | – | IC50 [1, 7]: 1210 nM; HepG2 cells mean TOX50 ([3]; mean; HepG2 cells): 32.74 µM |
| FC(F)(F)c1cccc(Nc2nc3ccccc3nc2Nc2cccc(C(F)(F)F)c2)c1 [TCMDC-124162] | 2400 | 20.50 | 17.68 | 140 | – | – | – | – | – |
| CN1CCC(N2CCN(Cc3cccc(-c4ccc(-c5nc6cc(C(F)(F)F)ccc6[nH]5)cc4)c3)CC2)CC1.O=C(O)C(F)(F)F [TCMDC-133842] | 1090 | 4.02 | 2.44 | 140 | – | – | – | – | – |
| COc1ccc2nc(N=C3NC4(c5ccccc5)NC(=Nc5nc6ccc(OC)cc6[nH]5)NC4(c4ccccc4)N3)[nH]c2c1.O=C(O)C(F)(F)F (stereo not drawn) [TCMDC-139632] | – | – | – | – | 120 | 67.82 | 62.72 | 200 | – |
| CC(Cc1ccc(OCCCCOc2ccccc2)cc1)NCCC1CCCN1C (stereo not drawn) [TCMDC-140017] | – | – | – | – | 200 | 85.16 | 1.12 | 40 | – |
| COc1ccc(OC)c(-c2cccc(-c3cccc(NC(=O)c4ccc([N+](=O)[O-])o4)c3)n2)c1 [TCMDC-124799] | 960 | 25.78 | 3.63 | 370 | – | – | – | – | – |
| COc1ccc(CNC2CCN(C)CC2)cc1-c1ccc(S(=O)(=O)NCc2ccccc2)s1.O=C(O)C(F)(F)F [TCMDC-132253] | 1750 | -2.80 | 5.50 | 230 | – | – | – | – | – |
| CC(NCCc1cccc(Cl)c1)C(O)c1ccc(OCCCCCCOc2ccc(C(O)C(C)NCCc3cccc(Cl)c3)cc2)cc1 (stereo not drawn) [TCMDC-139334] | – | – | – | – | 1000 | 41.15 | 2.63 | 400 | – |
| Cl.OC(CNCCCCCCNCC(O)c1ccc(Cl)c(Cl)c1)c1ccc(Cl)c(Cl)c1 (stereo not drawn) [TCMDC-141987] | – | 0.38 | – | 920 | – | – | – | – | IC50 [1, 7]: 900 nM; HepG2 cells mean TOX50 ([3]; mean; HepG2 cells): 4.27 µM |
| CC(C)COc1ccc2ccccc2c1CNCCCCCCNCc1c(OCC(C)C)ccc2ccccc12.CS(=O)(=O)O [TCMDC-137972] | – | – | – | – | 810 | 92.13 | 2.19 | 690 | – |
| COc1ccc2c(c1)CC(C)(C)NC2CCCCCCCCC1NC(C)(C)Cc2cc(OC)ccc21.O=C(O)C(=O)O (stereo not drawn) [TCMDC-137935] | – | – | – | – | 1470 | 1.39 | 5.62 | 1300 | – |
| C[C@H](Cc1ccc(CCc2ccc(C[C@@H](C)NC[C@H](O)c3cccc(Cl)c3)cc2)cc1)NC[C@H](O)c1cccc(Cl)c1.Cl [TCMDC-131551] | 2050 | 51.33 | 4.27 | 940 | – | – | – | – | – |
| CC(C)(C)c1ccc(-c2nc3c(ccc4nc(N)nc(N)c43)[nH]2)cc1.Cl [TCMDC-137984] | – | – | – | – | 260 | 79.78 | 2.12 | 160 | – |
| COc1cc(NCCCNCc2cn(Cc3cc(Br)cc(Br)c3)c3ccccc23)nc2ccccc12 [TCMDC-140677] | – | – | – | – | 860 | 11.13 | 3.94 | 190 | – |
| NCc1ccc(CNCc2ccc(-c3ccc(-c4nc5cc(C(F)(F)F)ccc5[nH]4)s3)cc2)cc1.O=C(O)C(F)(F)F [TCMDC-132814] | 1020 | 6.11 | 8.32 | 160 | – | – | – | – | – |
| N=C(NCC1CC1c1ccccc1)c1cccc(C(=N)NCC2CC2c2ccccc2)n1 (stereo not drawn) [TCMDC-137456] | – | – | – | – | 1890 | 24.65 | 6.21 | 1760 | – |
| COc1cc2nc(NCc3cccc(CNC(=O)c4ccc(-c5ccc(C(C)=O)cc5)cc4)c3)nc(N)c2cc1OC.O=C(O)C(F)(F)F [TCMDC-138177] | – | – | – | – | 4730 | -19.05 | 6.82 | 120 | – |

| Structure (SMILES) | IC50 [1, 5] [nM] | Gametocytes mean ATP inhibition at 2µM [2] [%] | HepG2 cells mean TOX50 ([3]; HepG2 cells; mean) [µM] | IC50 [4, 6] [nM] | IC50 [1] [nM] | Gametocytes mean ATP inhibition at 2µM (%) [2] [%] | HepG2 cells mean TOX50 ([3]; mean) [µM] | IC50 [4, 8] [nM] | further results |
| --- | --- | --- | --- | --- | --- | --- | --- | --- | --- |
| Cc1ccc(C(=O)Nc2ccc(Nc3ccnc4cc(-c5ccccn5)ccc34)cc2O)cc1.Cl [TCMDC-138205] | – | – | – | – | 540 | 46.13 | 1.27 | 110 | – |
| ON=C1CCc2cc(-c3cc(-c4ccc(OC5CCNCC5)cc4)oc3-c3ccncc3)ccc21 [TCMDC-141381] | – | 40.68 | – | 160 | – | – | – | – | IC50 [1, 7]: 200 nM; HepG2 cells mean TOX50 ([3]; mean; HepG2 cells): 5.01 µM |
| CCc1ccc(C2CCN(CCCCNC(=O)c3ccc(NC(=O)c4ccc(Cl)cc4)cc3)CC2)c(OCCO)c1 [TCMDC-138703] | – | – | – | – | 2250 | -4.56 | 5.37 | 1390 | – |
| NCCCCNc1cc(-c2ccnc(Nc3cccc(Cl)c3)n2)ccn1 [TCMDC-134683] | 1460 | -0.61 | 0.67 | 280 | – | – | – | – | – |
| Cc1sc2nc(CN3CCCC3)nc(-n3c(NCCO)nc4ccccc43)c2c1C [TCMDC-124811] | 7050 | 42.91 | 25.73 | 1240 | – | – | – | – | – |
| Br.CCc1c(CCNCCCCCCNCCc2ccc(Br)cc2)ccc(O)c1O [TCMDC-132044] | 1300 | 6.14 | 7.96 | 900 | – | – | – | – | – |
| Cc1ccc(Cn2nc(N3CCNCC3)ccc2=O)cc1NC(=O)Nc1ccc(-c2ccccc2)cc1.O=C(O)C(F)(F)F [TCMDC-132580] | 1940 | 1.45 | 7.42 | 840 | – | – | – | – | – |
| CC1CCCCN1CCCNc1nc(NCc2ccccc2)c2ccccc2n1 (stereo not drawn) [TCMDC-137771] | – | – | – | – | 7250 | 38.73 | 14.62 | 950 | – |
| COc1ccc(NC(=O)c2ccc(OCCCCCCCOc3ccc(C(=O)Nc4ccc(OC)c(N5CCN(C)CC5)c4)cc3)cc2)cc1N1CCN(C)CC1.O=C(O)C(=O)O [TCMDC-139007] | – | – | – | – | 1410 | -8.09 | 4.43 | 600 | – |
| CCc1c(CCNC/C=C/C=C/CNCCc2ccc(OC)c(OC)c2CC)ccc(OC)c1OC.Cl [TCMDC-132061] | 2560 | 13.62 | 4.68 | 970 | – | – | – | – | – |
| Cc1ccc(Cn2nc(Cl)c(N3CCCNCC3)cc2=O)cc1NC(=O)Nc1ccc(-c2ccccc2)cc1.O=C(O)C(F)(F)F [TCMDC-141697] | – | -13.94 | – | 670 | – | – | – | – | IC50 [1, 7]: 990 nM; HepG2 cells mean TOX50 ([3]; mean; HepG2 cells): 7.25 µM |
| CCn1c(-c2nonc2N)nc2c(-c3cccc(NC(=O)Nc4ccc(C(F)(F)F)cc4)c3)ncc(OCCCN)c21.O=C(O)C(F)(F)F [TCMDC-136179] | – | – | – | – | 910 | -5.44 | 5.62 | 1050 | – |
| CC1(CCN2CCC(c3c[nH]c4cnccc34)CC2)CCCc2c(Br)cccc2C1=O.Cl (stereo not drawn) [TCMDC-141171] | – | 10.47 | – | 190 | – | – | – | – | IC50 [1, 7]: 1730 nM; HepG2 cells mean TOX50 ([3]; mean; HepG2 cells): 5.25 µM |
| CCn1c(-c2nonc2N)nc2c(-c3cccc(NC(=O)Nc4cccc(Cl)c4)c3)ncc(OCCCN)c21.O=C(O)C(F)(F)F [TCMDC-136193] | – | – | – | – | 1180 | -8.58 | 80.36 | 940 | – |
| COc1ccc(C[C@H](N)C(=O)N[C@H]2[C@@H](O)[C@H](n3cnc4c(N(C)C)ncnc43)O[C@@H]2CO)cc1 [TCMDC-123493] | – | – | 1.80 | 170 | – | – | – | – | IC50 ([1]; Plasmodium falciparum, P. falciparum female gametocytes): 290 nM; inhibition at 2 µM ([2]; Plasmodium falciparum, mean): 63.8%; Selectivity ratio ([3]; HepG2 TOX50 versus Pf FGAA IC50): 6.24 |
| Fc1cc(Cl)ccc1Nc1ccnc2cc(-c3ccc(CN4CCOCC4)o3)ccc12 [TCMDC-138393] | – | – | – | – | 640 | 87.52 | 5.62 | 640 | – |
| CCCCOc1c(CCNCCCCNCCc2cc(OC)c3ccccc3c2OCCCC)cc(OC)c2ccccc12.CS(=O)(=O)O [TCMDC-137848] | – | – | – | – | 610 | 84.96 | 1.97 | 930 | – |
